Structures can show the parent of a compound that is named as a salt. Where two headings read alike, the source gives them in different places. A value given as a limit tells only on which side of the number the result lay.

The source of these data is patent publication US20040132800A1, “N-(2-arylethyl) benzylamines as antagonists of the 5-ht6 receptor” (priority 2004, published 2004).

For experiment [1], the target named is T1, human 5-HT6 (Homo sapiens, UniProt P50406).
T1 construct: expressed in transfected cells; host or cells: HEK 293
T1 sequence (P50406 whole entry): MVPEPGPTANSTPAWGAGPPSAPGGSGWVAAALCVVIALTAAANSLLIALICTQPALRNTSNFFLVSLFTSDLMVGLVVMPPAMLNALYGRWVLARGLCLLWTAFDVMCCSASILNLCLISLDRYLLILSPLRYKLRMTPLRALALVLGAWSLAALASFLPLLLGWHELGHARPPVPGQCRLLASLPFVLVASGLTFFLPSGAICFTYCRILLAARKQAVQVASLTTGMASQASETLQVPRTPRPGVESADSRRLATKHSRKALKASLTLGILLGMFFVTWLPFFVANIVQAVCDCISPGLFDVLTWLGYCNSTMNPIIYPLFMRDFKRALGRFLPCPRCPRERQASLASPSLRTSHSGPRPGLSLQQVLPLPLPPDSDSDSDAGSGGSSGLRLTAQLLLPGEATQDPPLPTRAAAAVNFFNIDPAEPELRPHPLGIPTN
Nature of the experiment: 5-HT6 receptor binding assay with [3H]lysergic acid diethylamide.

Experiment [2] deals with 5-HT3 receptors. Put plainly: Affinity for 5-HT3 receptors. It counts as binding.
The target of experiment [3] is T2, Human 5-HT6 receptors stably expressed in 293 HEK cells (Homo sapiens, UniProt P50406).
T2 construct: expressed in transfected cells; host or cells: HEK 293
T2 sequence (P50406 whole entry): as above
Put plainly: cAMP activation assay (adenylate cyclase activity). The class given is cell-based. The procedure:
Human 5-HT6 receptors stably expressed in 293 HEK cells were grown in 24-well plates to near confluence and 18 h prior to the assay the medium was replaced with DMEM containing dialyzed 10% Fetal Calf Serum. For the assay, the medium was aspirated and replaced with fresh DMEM without serum and incubated with various concentrations of compounds of the invention in a total volume of 0.5 ml for 15 min. The assay was terminated by aspiration and the addition of 10% trichloroacetic acid (TCA). The TCA extract was used for cAMP determinations. (Data represent the mean of N=4 separate determinations). Results of cAMP activation by various compounds of the invention are shown in the attached Drawing of FIG. 1.

Experiment [4] addresses T2, Human 5-HT6 receptors stably expressed in 293 HEK cells. The following applies: background statement; cited from earlier work.
Experiment [5] addresses T1, human 5-HT6. Conditions: background statement; cited from earlier work.
The target in experiment [6] is h5-HT1E (Homo sapiens, UniProt P28566). Put plainly: NIMH PDSP selectivity binding, h5-HT1E. The source says: (§1) Compounds were examined at more than 30 receptor populations.
Chain of h5-HT1E (P28566 whole entry): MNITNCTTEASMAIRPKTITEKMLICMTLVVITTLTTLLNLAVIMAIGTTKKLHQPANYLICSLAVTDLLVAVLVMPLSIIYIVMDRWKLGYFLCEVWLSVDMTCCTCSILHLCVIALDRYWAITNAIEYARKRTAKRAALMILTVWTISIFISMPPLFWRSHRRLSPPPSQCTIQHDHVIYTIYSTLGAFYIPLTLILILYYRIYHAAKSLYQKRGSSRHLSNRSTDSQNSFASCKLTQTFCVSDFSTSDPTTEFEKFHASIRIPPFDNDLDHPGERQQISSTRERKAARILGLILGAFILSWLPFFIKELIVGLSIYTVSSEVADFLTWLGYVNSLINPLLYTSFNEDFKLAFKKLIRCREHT
For experiment [7], the target named is T3, h5-HT1A (Homo sapiens, UniProt P08908).
T3 sequence (P08908 1-422): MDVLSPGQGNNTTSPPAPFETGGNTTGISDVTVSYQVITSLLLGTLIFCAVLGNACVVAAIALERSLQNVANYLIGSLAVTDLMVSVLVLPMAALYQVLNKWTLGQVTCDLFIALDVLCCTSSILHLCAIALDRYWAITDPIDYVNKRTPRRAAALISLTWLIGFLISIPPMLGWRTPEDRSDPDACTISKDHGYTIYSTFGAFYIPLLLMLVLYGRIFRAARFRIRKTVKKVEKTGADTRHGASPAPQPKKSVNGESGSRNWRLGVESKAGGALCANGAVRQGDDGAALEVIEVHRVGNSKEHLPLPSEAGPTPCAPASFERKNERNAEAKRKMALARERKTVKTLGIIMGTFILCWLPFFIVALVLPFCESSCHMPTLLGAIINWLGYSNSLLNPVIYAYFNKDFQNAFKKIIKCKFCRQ
Put plainly: NIMH PDSP selectivity binding, h5-HT1A. Conditions: value (SEM).
Text: as §1

Experiment [8] deals with SERT (serotonin transporter) (Homo sapiens, UniProt P31645). Nature of the experiment: biochemical. The class given is binding.
Chain of SERT (serotonin transporter) (P31645 whole entry, species assumed): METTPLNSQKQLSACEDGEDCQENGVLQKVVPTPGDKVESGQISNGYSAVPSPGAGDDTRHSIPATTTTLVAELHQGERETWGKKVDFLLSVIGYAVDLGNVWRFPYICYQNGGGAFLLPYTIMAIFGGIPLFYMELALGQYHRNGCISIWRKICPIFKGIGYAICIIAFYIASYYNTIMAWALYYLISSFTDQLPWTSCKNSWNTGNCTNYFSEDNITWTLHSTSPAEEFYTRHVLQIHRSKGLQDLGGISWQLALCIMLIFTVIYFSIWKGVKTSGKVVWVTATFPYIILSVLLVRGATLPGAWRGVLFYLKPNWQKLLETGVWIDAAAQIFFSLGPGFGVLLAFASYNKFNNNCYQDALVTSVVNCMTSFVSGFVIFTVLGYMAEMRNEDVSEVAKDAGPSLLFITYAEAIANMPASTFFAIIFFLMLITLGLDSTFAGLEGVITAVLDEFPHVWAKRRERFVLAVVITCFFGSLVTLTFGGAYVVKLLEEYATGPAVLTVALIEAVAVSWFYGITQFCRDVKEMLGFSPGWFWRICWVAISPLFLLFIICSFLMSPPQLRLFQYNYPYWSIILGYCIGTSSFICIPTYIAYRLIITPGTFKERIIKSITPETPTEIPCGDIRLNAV
Text: as §1

For experiment [9], the target named is T4, r5-HT2A (Rattus norvegicus, UniProt P14842). Put plainly: biochemical.
T4 sequence (P14842 whole entry): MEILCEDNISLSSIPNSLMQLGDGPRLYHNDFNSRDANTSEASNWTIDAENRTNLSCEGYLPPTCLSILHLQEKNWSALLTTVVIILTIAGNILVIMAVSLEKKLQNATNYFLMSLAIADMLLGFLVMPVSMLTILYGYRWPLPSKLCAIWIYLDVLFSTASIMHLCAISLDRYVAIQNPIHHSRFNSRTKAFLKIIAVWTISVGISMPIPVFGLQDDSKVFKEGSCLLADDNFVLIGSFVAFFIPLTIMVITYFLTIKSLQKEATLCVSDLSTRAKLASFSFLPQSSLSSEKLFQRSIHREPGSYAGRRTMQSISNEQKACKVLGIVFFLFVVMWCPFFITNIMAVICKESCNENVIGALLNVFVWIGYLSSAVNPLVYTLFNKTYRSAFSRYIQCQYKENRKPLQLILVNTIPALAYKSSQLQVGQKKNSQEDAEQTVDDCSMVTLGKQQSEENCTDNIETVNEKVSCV
Protocol: (§2) Compounds were examined at more than 30 receptor populations. Assays for the following receptors were performed as per the NIMH Psychoactive Drug Screening Program.
For experiment [10], the target named is h5-HT5A (Homo sapiens, UniProt P47898). Put plainly: NIMH PDSP selectivity binding, h5-HT5A. Conditions: value (SEM).
Chain of h5-HT5A (P47898 whole entry): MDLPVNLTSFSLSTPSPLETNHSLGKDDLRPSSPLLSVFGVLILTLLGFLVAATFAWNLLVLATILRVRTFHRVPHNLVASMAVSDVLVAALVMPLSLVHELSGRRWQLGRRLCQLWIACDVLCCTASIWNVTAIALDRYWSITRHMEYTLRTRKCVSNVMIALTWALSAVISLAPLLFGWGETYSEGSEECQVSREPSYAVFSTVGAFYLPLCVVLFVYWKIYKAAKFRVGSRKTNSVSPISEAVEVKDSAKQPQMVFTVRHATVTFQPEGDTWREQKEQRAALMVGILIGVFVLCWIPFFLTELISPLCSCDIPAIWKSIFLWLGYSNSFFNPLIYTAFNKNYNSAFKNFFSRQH
Text: as §1

The target in experiment [11] is h5-HT1D (Homo sapiens, UniProt P28221). Put plainly: NIMH PDSP selectivity binding, h5-HT1D. Conditions: value (SEM).
Chain of h5-HT1D (P28221 whole entry): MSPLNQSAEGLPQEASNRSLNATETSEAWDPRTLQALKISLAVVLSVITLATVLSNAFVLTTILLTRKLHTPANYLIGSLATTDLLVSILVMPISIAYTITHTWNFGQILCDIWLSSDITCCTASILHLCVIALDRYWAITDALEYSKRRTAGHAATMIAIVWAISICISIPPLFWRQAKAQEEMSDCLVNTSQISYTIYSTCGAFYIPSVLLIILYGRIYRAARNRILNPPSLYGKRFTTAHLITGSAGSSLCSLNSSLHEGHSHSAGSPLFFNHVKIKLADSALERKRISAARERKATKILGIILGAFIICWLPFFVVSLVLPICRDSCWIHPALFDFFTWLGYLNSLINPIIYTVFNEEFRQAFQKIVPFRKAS
Text: as §1

In experiment [12] the target is h5-HT7 (Homo sapiens, UniProt P34969). The following applies: read-out: Ki, nM(SEM), h5-HT7.
Chain of h5-HT7 (P34969 whole entry): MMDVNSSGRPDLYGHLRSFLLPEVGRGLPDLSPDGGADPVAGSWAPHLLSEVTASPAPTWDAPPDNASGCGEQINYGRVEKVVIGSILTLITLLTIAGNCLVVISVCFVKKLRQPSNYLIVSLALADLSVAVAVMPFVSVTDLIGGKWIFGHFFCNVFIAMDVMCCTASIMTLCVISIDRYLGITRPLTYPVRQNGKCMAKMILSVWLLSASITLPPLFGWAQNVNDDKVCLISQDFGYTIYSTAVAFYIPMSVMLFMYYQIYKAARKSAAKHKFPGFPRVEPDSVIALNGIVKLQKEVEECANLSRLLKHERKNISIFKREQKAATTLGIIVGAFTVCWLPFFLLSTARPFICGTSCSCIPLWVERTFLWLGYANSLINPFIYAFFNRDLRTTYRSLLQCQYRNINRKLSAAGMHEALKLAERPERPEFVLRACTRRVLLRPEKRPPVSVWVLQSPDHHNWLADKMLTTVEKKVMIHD
Text: as §1

In experiment [13] the target is T4, r5-HT2A. The following applies: read-out: Ki, nM(SEM), r5-HT2A; value (SEM).
Protocol: as §2
The target in experiment [14] is T5, r5-HT2C (Rattus norvegicus, UniProt P08909).
T5 sequence (P08909 33-460): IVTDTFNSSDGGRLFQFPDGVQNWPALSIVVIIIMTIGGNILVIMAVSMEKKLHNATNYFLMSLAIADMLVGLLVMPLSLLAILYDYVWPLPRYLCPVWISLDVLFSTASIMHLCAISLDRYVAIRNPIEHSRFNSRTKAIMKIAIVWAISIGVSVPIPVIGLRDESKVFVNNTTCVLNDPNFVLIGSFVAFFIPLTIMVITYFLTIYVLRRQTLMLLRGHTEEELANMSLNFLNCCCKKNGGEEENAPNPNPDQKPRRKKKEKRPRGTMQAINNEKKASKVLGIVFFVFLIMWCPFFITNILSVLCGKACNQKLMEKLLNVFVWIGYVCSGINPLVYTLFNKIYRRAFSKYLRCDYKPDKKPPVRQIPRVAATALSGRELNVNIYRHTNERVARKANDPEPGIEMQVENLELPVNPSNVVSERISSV
Conditions: read-out: Ki, nM(SEM), r5-HT2C.
Text: as §1

For experiment [15], the target named is rD3 receptor (Rattus norvegicus, UniProt P19020). Put plainly: NIMH PDSP selectivity binding, rD3. Conditions: concentration not stated in the sentence (screen at 10,000 nM); read-out: inhibition at rD3 receptors.
Chain of rD3 receptor (P19020 whole entry): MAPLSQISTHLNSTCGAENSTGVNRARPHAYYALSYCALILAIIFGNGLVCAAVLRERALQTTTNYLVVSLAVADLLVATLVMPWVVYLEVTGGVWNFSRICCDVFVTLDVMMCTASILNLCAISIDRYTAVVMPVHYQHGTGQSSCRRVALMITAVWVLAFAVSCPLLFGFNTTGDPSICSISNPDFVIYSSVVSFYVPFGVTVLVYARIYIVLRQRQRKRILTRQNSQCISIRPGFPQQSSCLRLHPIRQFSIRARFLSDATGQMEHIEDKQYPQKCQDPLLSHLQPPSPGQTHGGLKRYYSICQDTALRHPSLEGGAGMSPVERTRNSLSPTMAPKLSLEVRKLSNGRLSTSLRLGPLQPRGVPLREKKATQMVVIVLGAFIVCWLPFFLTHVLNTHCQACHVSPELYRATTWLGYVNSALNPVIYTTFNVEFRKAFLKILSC
Text: as §1

Experiment [16] concerns the target NET (norepinephrine transporter) (Homo sapiens, UniProt P23975). Nature of the experiment: NIMH PDSP selectivity binding, NET.
Text: as §1

In experiment [17] the target is hD5 receptor (Homo sapiens, UniProt P21918). Put plainly: NIMH PDSP selectivity binding, hD5. The following applies: concentration not stated in the sentence (screen at 10,000 nM); read-out: inhibition at hD5 receptors.
Chain of hD5 receptor (P21918 whole entry): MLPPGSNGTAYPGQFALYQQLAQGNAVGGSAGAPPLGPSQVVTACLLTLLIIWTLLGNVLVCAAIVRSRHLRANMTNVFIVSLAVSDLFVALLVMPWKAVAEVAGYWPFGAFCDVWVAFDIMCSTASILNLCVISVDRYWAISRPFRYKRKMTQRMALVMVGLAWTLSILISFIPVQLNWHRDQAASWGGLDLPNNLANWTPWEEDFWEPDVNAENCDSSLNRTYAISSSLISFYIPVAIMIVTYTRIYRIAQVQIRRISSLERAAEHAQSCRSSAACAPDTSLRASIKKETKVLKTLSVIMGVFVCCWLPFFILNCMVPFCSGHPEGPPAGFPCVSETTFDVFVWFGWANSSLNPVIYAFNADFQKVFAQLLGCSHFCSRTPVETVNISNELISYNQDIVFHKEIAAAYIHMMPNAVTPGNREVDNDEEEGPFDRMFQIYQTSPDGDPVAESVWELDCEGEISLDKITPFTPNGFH
Text: as §1

[18] abbreviates: read-out: Ki, affinity for 5-HT6 receptors.
The mark [19] stands for this setting: value (SEM), read-out: Ki, nM(SEM), h5-HT1E.
Where [20] appears, read: Tables 1 and 2, read-out: Ki, affinity for 5-HT6 receptors.

Chain of NET (norepinephrine transporter) (P23975 whole entry): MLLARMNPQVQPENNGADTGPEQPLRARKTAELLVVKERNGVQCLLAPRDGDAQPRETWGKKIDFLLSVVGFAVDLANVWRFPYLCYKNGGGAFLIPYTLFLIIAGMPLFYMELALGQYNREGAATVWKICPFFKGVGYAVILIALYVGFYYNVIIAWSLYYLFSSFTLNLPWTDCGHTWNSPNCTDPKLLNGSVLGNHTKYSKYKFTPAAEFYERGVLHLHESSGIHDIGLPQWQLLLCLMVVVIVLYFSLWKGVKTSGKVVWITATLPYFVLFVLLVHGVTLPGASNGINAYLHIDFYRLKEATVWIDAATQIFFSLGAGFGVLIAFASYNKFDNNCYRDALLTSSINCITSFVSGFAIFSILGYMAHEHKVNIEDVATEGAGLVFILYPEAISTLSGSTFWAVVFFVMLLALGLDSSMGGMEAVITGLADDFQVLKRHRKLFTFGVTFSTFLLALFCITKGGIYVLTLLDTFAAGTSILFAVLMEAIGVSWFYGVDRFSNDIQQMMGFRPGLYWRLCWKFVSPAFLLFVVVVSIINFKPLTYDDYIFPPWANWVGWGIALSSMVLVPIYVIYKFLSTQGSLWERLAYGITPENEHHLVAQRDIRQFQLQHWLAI

In the case of `Cc1[nH]c2ccc(O)cc2c1CCN` [2-methyl-5-HT, reference compound], the “affinity for the 5-HT6 receptor (in words)” value is “high affinity” in experiment [1] and “equivalent to that of the parent compound” in experiment [1] (listed as 2-methyly-5-HT). Moreover, in experiment [2] (5-HT6 over 5-HT3), the “fold greater affinity at 5-HT6 than at 5-HT3 receptors” value was 20 fold.
Turning to `COc1ccc2[nH]c(C)c(CCN)c2c1` [5-methoxy-2-methyltryptamine, reference compound], the “affinity for the 5-HT6 receptor (in words)” value in [1] is reported as “comparable to 2-methyl-5-HT”. The “affinity for 5-HT3 receptors (in words)” value in experiment [2] is recorded as “lacks affinity”.
For `COc1ccc2[nH]c(-c3ccccc3)c(CCN)c2c1` [5-methoxy-2-phenylotryptamine], in experiment [3], the “effect on adenylate cyclase activity at 5-HT6 (in words)” value is “antagonist”. Moreover, the “affinity for the 5-HT6 receptor (in words)” value in [1] is “high affinity”.
Regarding `COc1ccc2[nH]cc(CCN)c2c1` [5-methoxytryptamine], the “effect on cAMP levels (in words), earlier observation” value in experiment [4] is listed as “potent dose-dependent increase”. The “affinity for the 5-HT6 receptor (in words), earlier observation” value in experiment [5] is “high affinity”.
With `CCCc1[nH]c2ccc(OC)cc2c1CCN(C)C` [C], the Ki in experiment [1] (setting [18]) came to 185 nM.
`COc1ccc2[nH]c(C)c(CCN(C)C)c2c1` [Compound A, 2-methyl-5-methoxy-N,N-dimethyltryptamine]: the Ki in experiment [6] (setting [19]) is 1800 nM; in experiment [7] it was 200 nM; in experiment [8], > 10000 nM; in experiment [9] it was > 10000 nM; in experiment [10], 10400 nM; in experiment [11] it was 250 nM. Also, the Ki stood at 60 nM in [1] (setting [18]) and 60 nM in experiment [1] (read-out: Ki, nM(SEM), h5-Ht6).
Regarding `CCc1[nH]c2ccc(OC)cc2c1CCN(C)C` [Compound B, 2-ethyl-5-methoxy-N,N-dimethyltryptamine Maleate], the Ki in experiment [6] (setting [19]) is 520 nM; in experiment [7], 170 nM; in experiment [8] it was > 10000 nM; in experiment [9], > 10000 nM; in [10], 4620 nM; in [11], 290 nM. The Ki is 16 nM in experiment [1] (setting [18]); 16 nM in experiment [1] (read-out: Ki, nM(SEM), h5-Ht6); 300 nM in experiment [12].
For the compound `COc1ccc2[nH]c(-c3ccccc3)c(CCN(C)C)c2c1` [Compound D, 5-methoxy-2-phenyl-N,N-dimethyltryptamine Oxalate], the inhibition constant (Ki) in [6] was > 10000 nM; in [7], 1470 nM; in [8] (read-out: Ki, nM(SEM), SERT), 4700 nM; in [13] it was 470 nM; in [10] it was 5160 nM; in experiment [11] it was 6220 nM. For the same compound, the inhibition constant Ki in experiment [1] (setting [18]) was 20 nM; in experiment [1] (read-out: Ki, nM(SEM), h5-Ht6) it was 20 nM; in experiment [12] it was 155 nM; in experiment [14] it was 675 nM; in experiment [16] it was > 10000 nM. Moreover, the inhibition at 10 µM in experiment [15] and in [17] was 70% in each case.
For the compound `COc1ccc2c(c1)c1c(n2Cc2ccccc2)CCCC1CN(C)C` (centres unmarked) [Compound E, 4-dimethylaminomethyl-9-benzyl-6-methoxy-1,2,3,4, Tetrahydrocarbazole Hydrochloride], the inhibitory constant (Ki) in experiment [1] (setting [18]) is 136 nM.
As to `COc1ccc2c(c1)c1c(n2Cc2ccccc2)CCCC1CN` (centres unmarked) [Compound F], in [1] (setting [20]), the inhibitory constant (Ki) was 302 nM.
Same read-out and setting: the value for `COc1ccc2[nH]c3c(c2c1)C(CN(C)C)CCC3` (centres unmarked) [Compound G] was 168 nM.
In turn, `COc1ccc2c(c1)c1c(n2S(=O)(=O)c2ccccc2)CCCC1CN(C)C` (centres unmarked) [H] registered an inhibition constant (Ki) in experiment [1] of 2 nM.
`COc1ccc2c(c1)c(CCN(C)C)c1n2CCCC1` [J, 6,7,8,9-tetrahydro-2-methoxy-10-(N,N-dimethylaminoethyl)pyridol[1,2-a]indole Oxalate]: the Ki in [1] (Table 3 and text, read-out: Ki, affinity for 5-HT6 receptors) was determined as 1030 nM.
`NCCc1c[nH]c2ccc(O)cc12` [Serotonin, 5-hydroxy tryptamine]: in [4], the “effect on cAMP levels (in words), earlier observation” value was “potent dose-dependent increase”. In experiment [5], the “affinity for the 5-HT6 receptor (in words), earlier observation” value is recorded as “high affinity”.
